Measured values: patent US9458427B2, “IFNγR2 compositions and methods of inhibiting neuronal cell death” (Case Western Reserve University, priority 2009, dated 2016)
Ends that are not written are not given here.

How the values were obtained:
[1] = tested on: organotypic hippocampal slice cultures; test: Neuronal cell death in organotypic hippocampal slice cultures (PI uptake, Nissl staining); format: cell-based; settings: for Suppression of oligomeric Aβ-induced neuronal loss (Nissl staining): peptide co-applied with oligomeric Aβ; for Prevention of oligomeric Aβ-induced PI uptake: peptide co-applied with oligomeric Aβ (500 nM), after 24-h treatment
Method: (§1) Organotypic hippocampal slice cultures were prepared as described previously. Briefly, hippocampal slice cultures were prepared using 7-10-day-old mouse pups. Slices were cut at 400 μm on a Mcllwain tissue chopper, transferred to Millicell membrane inserts ([…]; Millipore), and placed in 6-well culture plates. The culture medium consisted of basal Eagle's medium with Earle's balanced salt solution, 20% heat-inactivated horse serum, enriched with 5.6 mM glucose. The medium was changed every other day. The effect of oligomeric Ab (500 nM) was tested in the slices that had been maintained for 11-14 days in vitro. Aβ oligomer or reversed sequence of Aβ1-42 control peptide (Aβ42-1) was added to cultures in serum-free medium and, after the treatment, the hippocampal slices were rinsed twice in ice-cold phosphate-buffered saline (PBS), and then harvested by removing the Millicell membrane insert.
To determine neuronal cell death in the hippocampal slices, PI (5 μg/ml) was added to the slice culture medium. Images were acquired through an AxioCam camera on an Axiovert 200M microscope (Zeiss, Oberkochen, Germany). Fluorescent intensity was measured using Image J (NIH, Bethesda, Md., USA). Hematoxylin and eosin (H&E) and Niss1 staining was also performed for routine histochemical and morphological analyses.

[2] = tested on: hippocampal slice cultures; test: Cell permeability of FITC-tagged peptides in hippocampal slice cultures; format: cell-based, mouse; settings: after 24-h treatment
Source text: In this study, in addition to utilizing Bax knockout (KO) mice, we utilized BIP to examine the role of Bax in oligomeric Aβ-induced neurotoxicity. BIP used in this study consists of five amino acids, VPTLK, a sequence that is known to inhibit Bax activation. […] Both peptides were tagged with fluorescein isothiocyanate (FITC) so that intracellular delivery can be tracked by FITC signal.

[3] = tested on: Bim, Bcl-2, Bax, caspase-3; test: Western blot analysis of Bim, Bcl-2, Bax and cleaved caspase-3 in hippocampal slice cultures; format: cell-based, mouse
Method: as §1
The protein concentration was determined by BCA assay (Pierce, Rockford, Ill., USA). The extracted proteins were separated on 10 or 12% SDS-polyacrylamide gel and transferred onto polyvinylidene difluoride membranes. The blots were blocked with 10% non-fat milk in TBS-T for 1 h at room temperature, and then treated with primary antibodies diluted with 1% non-fat milk and incubated overnight at 4° C. The following antibodies were used for western blot analysis: anti-caspase-3 (1:1000; Santa Cruz Biotechnology, Santa Cruz, Calif., USA), anti-Bim (1:1000; Stressgen, Farmingdale, N.Y., USA), anti-Bcl-2 (1:1000; Stressgen) and 6A7 (conformational specific Bax antibody) (1:1000; BD Pharmingen, San Diego, Calif., USA).

Bax = target: T1, Bax (Mus musculus, UniProt Q07813); test: Immunocytochemistry with 6A7 antibody (active Bax) in hippocampal slice cultures; format: cell-based
T1 construct: from tissue; host or cells: mouse hippocampal slice culture
Method: as §1
Cultured hippocampal slices were rinsed with icecold PBS once and fixed for 2 h with 4% paraformaldehayde in 0.1M PBS. After washing with PBS, sections were permeabilized overnight with PBS containing 0.2% Triton X-100. At the end of the permeabilization blocking solution, 10% normal goat serum in PBS was applied for 4 h at room temperature. After washing with PBS, primary antibody was added and incubated for 24-48 h at 4° C. […] Images were then analyzed with the Axiovision software (Zeiss).

[4] = tested on: C57BL6/J mice hippocampus; test: Intrahippocampal injection of oligomeric Aβ in mice; format: in vivo, mouse
Method: C57BL6/J mice (The Jackson Laboratories; 2-3-month-old) were anesthetized with pentobarbital and placed in a stereotaxic frame. Injection was made using a 10-μl microsyringe (Hamilton, Reno, Nev., USA). […] Control animals were prepared identically and injected with the same volume and concentration of Aβ42-1 in PBS. Injections were made at stereotaxic coordinates from bregma; antereoposterior (AP)=2.3 mm, mediolateral (ML)=2.5 mm and doroventral (DV)=−2.5 mm according to a previous report. This corresponds to a site in the dorsal hippocampus in the apical dendritic zones of the CA1 region near the hippocampal fissure. Mice were killed 10 or 20 days after injection, brains dissected out, fixed in 10% buffered-formalin and paraffin-embedded. For brain tissue sections, 6-μm-thick serial sections were cut, mounted onto slides and rehydrated according to standard protocols.
Cultured hippocampal slices were rinsed with icecold PBS once and fixed for 2 h with 4% paraformaldehayde in 0.1M PBS. After washing with PBS, sections were permeabilized overnight with PBS containing 0.2% Triton X-100. At the end of the permeabilization blocking solution, 10% normal goat serum in PBS was applied for 4 h at room temperature. After washing with PBS, primary antibody was added and incubated for 24-48 h at 4° C. After thorough washing of the sections in PBS, a secondary antibody labeled with either Alexa Fluor (Life Technologies, Grand Island, N.Y., USA) 488 or 568 (1:300) was added and incubated for 4 h at room temperature. All of the experiments contained at least one sample incubated without a primary antibody to exclude non-specific signal. Nuclei were visualized with DAPI. Images were acquired through an AxioCam camera on an Axiovert 200M microscope (Zeiss). Images were then analyzed with the Axiovision software (Zeiss).
Detection of 3′-OH termini of DNA strand breaks was performed using in situ cell death detection kit (Roche). Briefly, the tissue sections were treated with proteinase K (20 μg/ml in 10 mmol/l Tris-HCl, pH 7.4) for 30 min at 37° C. after rehydration. After rinsing with PBS, TUNEL reaction mixture containing terminal deoxynucleotidyl transferase and fluorescence-labeled nucleotide was applied for 1 h 37° C. The samples were then washed and mounted using Aquamount (Southern Biotech, Birmingham, Ala., USA).

Mouse Bax = target: T2, Mouse Bax (Mus musculus, UniProt Q07813); test: Yeast-based functional screening for Bax inhibitors; format: cell-based; settings: yeast strain EGY48, galactose-inducible mouse Bax
T2 construct: expressed in transfected cells; host or cells: yeast strain EGY48, pGilda vector
Method: The yeast strain EGY48 was used for the yeast functional screening for Bax inhibitors. Mouse Bax was expressed under a galactose-inducible promoter using pGilda vector as reported. Yeast expression libraries of cDNAs of mouse brain and a human cell line (HeLa) were prepared in pYES2 and pJG4-5 vectors, respectively.
To perform a yeast-based functional screen for Bax inhibitors, yeast expression cDNA libraries were generated from purified mRNAs of human HeLa cells and mouse brain tissue using pJG4-5 and pYES2 vectors, respectively. […] IFNγR2263-337 contains a Jak2-binding domain (amino acids 284-295). To determine the role of the Jak2-binding domain in Bax inhibition, two IFNγR2 mutants were generated (FIG. 1B) and tested for their anti-Bax activity in human cells as described below.

human Bax ΔTM = target: T3, human Bax ΔTM (Homo sapiens, UniProt Q07812); test: Binding of recombinant proteins (pull-down on anti-Bax beads); settings: purified recombinant proteins, IFNγR2263-337 tagged with thioredoxin (rTrx)
T3 construct: Bax C terminal transmembrane truncated human Bax; His tag (on MBP) (N, cleaved yes); made in house
Source text: Recombinant human Bax ΔTM (Bax C terminal transmembrane truncated human Bax) was produced by using pHMTc vector downstream of maltose binding protein (MBP), separated by the TEV protease site. Overexpressed MBP-Bax was purified through a maltose-binding column (NEB) and subsequently cleaved by TEV protease (Invitrogen), followed by Ni-affinity purification to remove the protease and the His-tagged MBP. IFNγR2 cytoplamic domain (amino acids 263 337) was fused with thioredoxin (rTrx) to increase the recovery rate from bacterial lysates. The production and the purification of this fusion protein were performed by Protein X Laboratory (San Diego, Calif.). Recombinant Bax (25 ng) was loaded onto Sepharose G beads pre-equilibrated with anti-Bax antibody (Bax B9, Santa Cruz) or pre-immune IgG (control IgG) at 4° C. for 2 h. The excess Bax molecules were washed 3 times with buffer (50 mM phosphate buffer, pH 7.4). Recombinant IFNγR2 (263-337)-rTrx (25 ng) was added to the beads preloaded with Bax and anti-Bax or control IgG. Beads and IFNγR2263-337-rTrx were incubated at 4° C. for 2 h. After the incubation, beads were extensively washed with the loading buffer (50 mM phosphate buffer, pH 7.4). Beads were boiled in Laemmli buffer, and the supernatant was collected as a sample. Samples were analyzed by western blot using anti IFNγR2 antibody (C20, Santa Cruz) and Bax (N20, Santa Cruz).

T1 sequence (Q07813 whole entry): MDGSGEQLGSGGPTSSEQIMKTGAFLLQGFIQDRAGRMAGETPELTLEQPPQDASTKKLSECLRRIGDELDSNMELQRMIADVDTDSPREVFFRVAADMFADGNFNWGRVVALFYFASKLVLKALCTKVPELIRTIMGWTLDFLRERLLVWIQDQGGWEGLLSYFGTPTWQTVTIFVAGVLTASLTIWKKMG
T2 sequence (Q07813 whole entry): as above
T3 sequence (Q07812 1-171 limits assumed, stated change not applied): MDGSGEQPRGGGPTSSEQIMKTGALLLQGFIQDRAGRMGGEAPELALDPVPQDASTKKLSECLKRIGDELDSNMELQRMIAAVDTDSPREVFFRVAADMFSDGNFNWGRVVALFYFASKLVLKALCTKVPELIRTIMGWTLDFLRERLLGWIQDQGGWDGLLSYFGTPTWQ

KLVPT [control peptide]
Suppression of oligomeric Aβ-induced neuronal loss (Nissl staining) [1]: failed to prevent neuronal cell death | Prevention of oligomeric Aβ-induced PI uptake [1]: did not affect the level of PI uptake | Cell permeability (green fluorescence of FITC-tagged peptide in neuronal cells) [2]: equally penetrated neuronal cells

VPTLK (also: FITC tag, site not given here) [BIP]
Suppression of oligomeric Aβ-induced neuronal loss (Nissl staining) [1]: significantly suppressed | Prevention of oligomeric Aβ-induced PI uptake [1]: significantly prevented PI uptake | Suppression of oligomeric Aβ-induced caspase-3 activation (immunoblot) ([3]; peptide co-applied with oligomeric Aβ): significantly suppressed | Suppression of oligomeric Aβ-induced conformational change of Bax (6A7) (Bax; slices treated with oligomeric Aβ for 48 h): suppresses oligomeric Aβ-induced conformational change of Bax | Cell permeability (green fluorescence of FITC-tagged peptide in neuronal cells) [2]: equally penetrated neuronal cells

oligomeric Aβ: soluble oligomeric Aβ prepared from synthetic Aβ1-42 peptide (AnaSpec)
Neuronal cell death induced by oligomeric Aβ in slice culture from bax−/− mice ([1]; bax−/− versus wild-type slices, 500 nM, 48 h): dramatically reduced | PI uptake / number of PI-positive cells (neuronal cell death) ([1]; wild-type slices, 500 nM, 48 h of treatment): significantly increased | Level of Bax ([3]; oligomeric Aβ-treated brain slices): not affected | Expression of Bim ([3]; oligomeric Aβ-treated brain slices, time-dependent): increased the expression of Bim | Number of 6A7-positive cells (active form of Bax) (Bax; slice cultures, 24 h after treatment): significantly increased | Level of Bim in hippocampus ([4]; 10 days after injection): dramatically increased | Number of neurons containing the active form of Bax (6A7 antibody) ([4]; 10 days after injection): dramatically increased | Neuronal cell death in hippocampus ([4]; WT mouse, 20 days after intrahippocampal injection): induced neuronal cell death | Number of TUNEL-positive neurons ([4]; intrahippocampal injection): significantly increased

B1: IFNγR2263-337: cytoplasmic domain of IFNγR2 (amino acids 263-337); recombinant form fused with thioredoxin (rTrx) (protein)
chain: AGACFFLVLKYRGLIKYWFHTPPSIPLQIEEYLKDPTQPILEALDKDSSPKDDVWDSVSIISFPEKEQEDVLQTL
modifications: left off: large carriers
Suppression of Bax in yeast (rescue of yeast growth from Bax expression) (Mouse Bax): Bax suppressor | Direct interaction with BaxΔTM (human Bax ΔTM): confirmed
